Laboratory results published in patent US10758534B2 (Vertex Pharmaceuticals Incorporated, priority 2014, dated 2020).

Target: T1, F508del (Homo sapiens, UniProt P13569, DEL508-508)
T1 construct: expressed in transfected cells
Experiment: Protocol 2: FRET membrane potential optical assay (VIPR), identification of correction compounds
Type: cell-based
Conditions: F508del CFTR modulator activity; compounds of Table 1; read-out: EC30
How it was run: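 Single-addition HTS format: F508del-expressing NIH3T3 cells pre-incubated 16 hrs at 37° C. ± compound, with 27° C. culture as positive control. Channel activation by forskolin 10 μM and genistein 20 μM upon switch to gluconate bath, pH 7.4; read-out is FRET-based depolarization signal.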

T1 sequence (P13569 with tags, fused parts or gaps DEL508-508): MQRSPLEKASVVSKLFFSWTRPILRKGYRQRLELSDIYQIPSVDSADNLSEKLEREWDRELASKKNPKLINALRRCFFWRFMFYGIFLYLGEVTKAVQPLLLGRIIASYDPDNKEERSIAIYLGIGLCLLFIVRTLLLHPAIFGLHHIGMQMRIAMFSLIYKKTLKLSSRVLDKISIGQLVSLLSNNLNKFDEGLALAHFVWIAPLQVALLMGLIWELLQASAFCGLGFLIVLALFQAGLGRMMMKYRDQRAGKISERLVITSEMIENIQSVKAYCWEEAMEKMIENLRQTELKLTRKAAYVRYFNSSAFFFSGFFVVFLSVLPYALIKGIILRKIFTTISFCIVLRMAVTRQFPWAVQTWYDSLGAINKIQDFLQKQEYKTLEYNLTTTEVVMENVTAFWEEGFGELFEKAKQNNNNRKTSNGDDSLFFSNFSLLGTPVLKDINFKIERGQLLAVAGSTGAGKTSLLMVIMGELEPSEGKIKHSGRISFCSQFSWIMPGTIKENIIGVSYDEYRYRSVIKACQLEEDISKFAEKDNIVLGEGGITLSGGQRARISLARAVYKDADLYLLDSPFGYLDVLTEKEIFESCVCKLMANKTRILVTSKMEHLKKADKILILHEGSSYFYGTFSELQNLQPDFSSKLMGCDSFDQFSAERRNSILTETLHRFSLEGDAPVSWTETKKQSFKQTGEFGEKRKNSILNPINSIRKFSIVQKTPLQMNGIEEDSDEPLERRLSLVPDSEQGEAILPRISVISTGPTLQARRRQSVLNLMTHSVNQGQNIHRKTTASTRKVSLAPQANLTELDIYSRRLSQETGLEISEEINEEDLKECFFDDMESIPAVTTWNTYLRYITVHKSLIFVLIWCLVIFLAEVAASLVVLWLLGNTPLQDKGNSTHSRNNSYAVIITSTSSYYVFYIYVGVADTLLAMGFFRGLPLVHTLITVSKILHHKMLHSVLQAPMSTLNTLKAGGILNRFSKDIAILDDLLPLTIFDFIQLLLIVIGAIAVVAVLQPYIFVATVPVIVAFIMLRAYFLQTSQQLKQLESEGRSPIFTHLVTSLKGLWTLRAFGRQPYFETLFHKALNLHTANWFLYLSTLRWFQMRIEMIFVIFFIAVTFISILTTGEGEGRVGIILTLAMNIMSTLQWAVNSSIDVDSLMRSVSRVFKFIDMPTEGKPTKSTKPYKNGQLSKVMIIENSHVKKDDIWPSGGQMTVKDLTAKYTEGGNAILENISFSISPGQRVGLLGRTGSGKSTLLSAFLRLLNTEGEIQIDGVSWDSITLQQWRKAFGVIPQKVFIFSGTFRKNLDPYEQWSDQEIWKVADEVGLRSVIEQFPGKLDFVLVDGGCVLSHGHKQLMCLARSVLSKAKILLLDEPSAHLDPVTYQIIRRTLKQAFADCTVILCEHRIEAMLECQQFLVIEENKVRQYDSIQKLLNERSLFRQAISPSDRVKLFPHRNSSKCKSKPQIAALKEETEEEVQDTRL

Compound | EC30 [nM]
C[C@@H]1CN(c2nc(-c3ccccc3C(F)(F)F)ccc2C(=O)NS(=O)(=O)c2cccnc2N)C(C)(C)C1 [Compound 2040, N-[(2-amino-3-pyridyl)sulfonyl]-6-[2-(trifluoromethyl)phenyl]-2-[(4S)-2,2,4-trimethylpyrrolidin-1-yl]pyridine-3-carboxamide] | < 3000
COc1ccc(Nc2cccc(S(=O)(=O)NC(=O)c3cccnc3N3CC(C)CC3(C)C)n2)cc1OC (stereo not drawn) [Compound 2041, N—[[6-(3,4-dimethoxyanilino)-2-pyridyl]sulfonyl]-2-(2,2,4-trimethylpyrrolidin-1-yl)pyridine-3-carboxamide] | < 3000
CC(C)COc1cc(F)cc(-c2ccc(C(=O)NS(=O)(=O)C3CCNC3)c(N3C[C@@H](C)CC3(C)C)n2)c1 (stereo partly drawn) [Compound 2042, 6-(3-fluoro-5-isobutoxy-phenyl)-N-pyrrolidin-3-ylsulfonyl-2-[(4S)-2,2,4-trimethylpyrrolidin-1-yl]pyridine-3-carboxamide] | < 3000
Cc1ccc(-c2ccc(C(=O)NS(=O)(=O)c3cccc(N)n3)c(N3C[C@@H](C)CC3(C)C)n2)c(O)c1 [Compound 2043, N-[(6-amino-2-pyridyl)sulfonyl]-6-(2-hydroxy-4-methyl-phenyl)-2-[(4S)-2,2,4-trimethylpyrrolidin-1-yl]pyridine-3-carboxamide] | < 3000
CC1CN(c2ncccc2C(=O)NS(=O)(=O)c2cccc(N(C)CC3CC3)n2)C(C)(C)C1 (stereo not drawn) [Compound 2044, N—[[6-[cyclopropylmethyl(methyl)amino]-2-pyridyl]sulfonyl]-2-(2,2,4-trimethylpyrrolidin-1-yl)pyridine-3-carboxamide] | < 3000
C[C@@H]1CN(c2nc(-c3ccccc3F)ccc2C(=O)NS(=O)(=O)N2CC[C@H](N)C2)C(C)(C)C1 [Compound 2045, N-[(3S)-3-aminopyrrolidin-1-yl]sulfonyl-6-(2-fluorophenyl)-2-[(4S)-2,2,4-trimethylpyrrolidin-1-yl]pyridine-3-carboxamide] | 3000 to 10000
C[C@@H]1CN(c2nc(-c3cc(F)ccc3O)ccc2C(=O)NS(=O)(=O)c2cccnc2N)C(C)(C)C1 [Compound 2046, N-[(2-amino-3-pyridyl)sulfonyl]-6-(5-fluoro-2-hydroxy-phenyl)-2-[(4S)-2,2,4-trimethylpyrrolidin-1-yl]pyridine-3-carboxamide] | < 3000
C[C@@H]1CN(c2nc(C3CC(C)(C)CCC3O)ccc2C(=O)NS(=O)(=O)c2cccnc2N)C(C)(C)C1 (stereo partly drawn) [Compound 2047, N-[(2-amino-3-pyridyl)sulfonyl]-6-(2-hydroxy-5,5-dimethyl-cyclohexyl)-2-[(4S)-2,2,4-trimethylpyrrolidin-1-yl]pyridine-3-carboxamide] | 3000 to 10000
C[C@@H]1CN(c2nc(-c3ccc(C(F)(F)F)cc3)ccc2C(=O)NS(=O)(=O)c2cccnc2N)C(C)(C)C1 [Compound 2048, N-[(2-amino-3-pyridyl)sulfonyl]-6-[4-(trifluoromethyl)phenyl]-2-[(4S)-2,2,4-trimethylpyrrolidin-1-yl]pyridine-3-carboxamide] | < 3000
CC1CN(c2ncccc2C(=O)NS(=O)(=O)c2cccc(NC(C)c3cccc4ccccc34)n2)C(C)(C)C1 (stereo not drawn) [Compound 2049, N—[[6-[1-(1-naphthyl)ethylamino]-2-pyridyl]sulfonyl]-2-(2,2,4-trimethylpyrrolidin-1-yl)pyridine-3-carboxamide] | < 3000
CCOc1ccccc1-c1ccc(C(=O)NS(=O)(=O)N2CC[C@H](N)C2)c(N2C[C@@H](C)CC2(C)C)n1 [Compound 2050, N-[(3S)-3-aminopyrrolidin-1-yl]sulfonyl-6-(2-ethoxyphenyl)-2-[(4S)-2,2,4-trimethylpyrrolidin-1-yl]pyridine-3-carboxamide] | < 3000
CCOc1ccc(F)cc1-c1ccc(C(=O)NS(=O)(=O)c2ccc[nH]c2=O)c(N2C[C@@H](C)CC2(C)C)n1 [Compound 2051, 6-(2-ethoxy-5-fluoro-phenyl)-N-[(2-oxo-1H-pyridin-3-yl)sulfonyl]-2-[(4S)-2,2,4-trimethylpyrrolidin-1-yl]pyridine-3-carboxamide] | < 3000
Cc1cc(-c2ccc(C(=O)NS(=O)(=O)c3cccnc3N)c(N3C[C@@H](C)CC3(C)C)n2)ccc1F [Compound 2052, N-[(2-amino-3-pyridyl)sulfonyl]-6-(4-fluoro-3-methyl-phenyl)-2-[(4S)-2,2,4-trimethylpyrrolidin-1-yl]pyridine-3-carboxamide] | < 3000
CC1CN(c2ncccc2C(=O)NS(=O)(=O)c2cccc(NC3CCCC3)n2)C(C)(C)C1 (stereo not drawn) [Compound 2053, N—[[6-(cyclopentylamino)-2-pyridyl]sulfonyl]-2-(2,2,4-trimethylpyrrolidin-1-yl)pyridine-3-carboxamide] | < 3000
C[C@@H]1CN(c2nc(-c3ccc4cc[nH]c4c3)ccc2C(=O)NS(=O)(=O)c2cccnc2N)C(C)(C)C1 [Compound 2054, N-[(2-amino-3-pyridyl)sulfonyl]-6-(1H-indol-6-yl)-2-[(4S)-2,2,4-trimethylpyrrolidin-1-yl]pyridine-3-carboxamide] | < 3000
CC1CN(c2ncccc2C(=O)NS(=O)(=O)c2cccc(N3CCCC3C(F)(F)F)n2)C(C)(C)C1 (stereo not drawn) [Compound 2055, N—[[6-[2-(trifluoromethyl)pyrrolidin-1-yl]-2-pyridyl]sulfonyl]-2-(2,2,4-trimethylpyrrolidin-1-yl)pyridine-3-carboxamide] | < 3000
C[C@@H]1CN(c2nc(O[C@H]3CCOC3)c(F)cc2C(=O)NS(=O)(=O)c2cccc(N)n2)C(C)(C)C1 [Compound 2056, N-[(6-amino-2-pyridyl)sulfonyl]-5-fluoro-6-[(3S)-tetrahydrofuran-3-yl]oxy-2-[(4S)-2,2,4-trimethylpyrrolidin-1-yl]pyridine-3-carboxamide] | 3000 to 10000
CC1CN(c2ncccc2C(=O)NS(=O)(=O)c2cccc(OC3(C)CCCCCC3)n2)C(C)(C)C1 (stereo not drawn) [Compound 2057, N—[[6-(1-methylcycloheptoxy)-2-pyridyl]sulfonyl]-2-(2,2,4-trimethylpyrrolidin-1-yl)pyridine-3-carboxamide] | < 3000
CC1CN(c2ncccc2C(=O)NS(=O)(=O)c2cccc(OC3CC4CCC3(C)C4(C)C)n2)C(C)(C)C1 (stereo not drawn) [Compound 2059, N—[[6-(1,7,7-trimethylnorbornan-2-yl)oxy-2-pyridyl]sulfonyl]-2-(2,2,4-trimethylpyrrolidin-1-yl)pyridine-3-carboxamide] | < 3000
CCOC(=O)c1cccc(Nc2cccc(S(=O)(=O)NC(=O)c3cccnc3N3CC(C)CC3(C)C)n2)c1 (stereo not drawn) [Compound 2060, ethyl 3-[[6-[[2-(2,2,4-trimethylpyrrolidin-1-yl)pyridine-3-carbonyl]sulfamoyl]-2-pyridyl]amino]benzoate] | < 3000
CC1CN(c2ncccc2C(=O)NS(=O)(=O)c2cccc(Oc3ccc(Cl)c(Cl)c3)n2)C(C)(C)C1 (stereo not drawn) [Compound 2061, N—[[6-(3,4-dichlorophenoxy)-2-pyridyl]sulfonyl]-2-(2,2,4-trimethylpyrrolidin-1-yl)pyridine-3-carboxamide] | < 3000
CC1CN(c2ncc(/C=C/C3CCCCC3)cc2C(=O)NS(=O)(=O)c2cccc(N)n2)C(C)(C)C1 (stereo not drawn) [Compound 2063, N-[(6-amino-2-pyridyl)sulfonyl]-5-[(E)-2-cyclohexylvinyl]-2-(2,2,4-trimethylpyrrolidin-1-yl)pyridine-3-carboxamide] | < 3000
CC1CN(c2ncccc2C(=O)NS(=O)(=O)c2cccc(NCc3cccc(Cl)c3)n2)C(C)(C)C1 (stereo not drawn) [Compound 2064, N—[[6-[(3-chlorophenyl)methylamino]-2-pyridyl]sulfonyl]-2-(2,2,4-trimethylpyrrolidin-1-yl)pyridine-3-carboxamide] | < 3000
COc1cc(CO)cc(-c2ccc(C(=O)NS(=O)(=O)c3cccnc3N)c(N3C[C@@H](C)CC3(C)C)n2)c1 [Compound 2065, N-[(2-amino-3-pyridyl)sulfonyl]-6-[3-(hydroxymethyl)-5-methoxy-phenyl]-2-[(4S)-2,2,4-trimethylpyrrolidin-1-yl]pyridine-3-carboxamide] | < 3000
C[C@@H]1CN(c2nc(-c3ccccc3Cl)ccc2C(=O)NS(=O)(=O)c2cccnc2N)C(C)(C)C1 [Compound 2066, N-[(2-amino-3-pyridyl)sulfonyl]-6-(2-chlorophenyl)-2-[(4S)-2,2,4-trimethylpyrrolidin-1-yl]pyridine-3-carboxamide] | < 3000
Cc1ccc(F)cc1-c1ccc(C(=O)NS(=O)(=O)c2ccc[nH]c2=O)c(N2C[C@@H](C)CC2(C)C)n1 [Compound 2067, 6-(5-fluoro-2-methyl-phenyl)-N-[(2-oxo-1H-pyridin-3-yl)sulfonyl]-2-[(4S)-2,2,4-trimethylpyrrolidin-1-yl]pyridine-3-carboxamide] | < 3000
CC1CN(c2ncccc2C(=O)NS(=O)(=O)c2cccc(Nc3ccccn3)n2)C(C)(C)C1 (stereo not drawn) [Compound 2068, N—[[6-(2-pyridylamino)-2-pyridyl]sulfonyl]-2-(2,2,4-trimethylpyrrolidin-1-yl)pyridine-3-carboxamide] | < 3000
C[C@@H]1CN(c2nc(-c3ccccc3OC(F)(F)F)ccc2C(=O)NS(=O)(=O)N2CC[C@H](N)C2)C(C)(C)C1 [Compound 2070, N-[(3S)-3-aminopyrrolidin-1-yl]sulfonyl-6-[2-(trifluoromethoxy)phenyl]-2-[(4S)-2,2,4-trimethylpyrrolidin-1-yl]pyridine-3-carboxamide] | < 3000
CCOc1ccc(F)cc1-c1ccc(C(=O)NS(=O)(=O)c2cccnc2N)c(N2C[C@@H](C)CC2(C)C)n1 [Compound 2071, N-[(2-amino-3-pyridyl)sulfonyl]-6-(2-ethoxy-5-fluoro-phenyl)-2-[(4S)-2,2,4-trimethylpyrrolidin-1-yl]pyridine-3-carboxamide] | < 3000
COc1ccc(CCNc2cccc(S(=O)(=O)NC(=O)c3cccnc3N3CC(C)CC3(C)C)n2)cc1 (stereo not drawn) [Compound 2072, N—[[6-[2-(4-methoxyphenyl)ethylamino]-2-pyridyl]sulfonyl]-2-(2,2,4-trimethylpyrrolidin-1-yl)pyridine-3-carboxamide] | 3000 to 10000
